Test [1] concerns DSS-induced IBD mouse model. Briefly: DSS-induced IBD mouse model (Example 10). The test is classed as in vivo, C57BL/6J mice. As to conditions: 500 mg/kg intragastrically once a day. The procedure: 1. Animals: C57BL/6J mice, male (18-20 g); 10 mice per group; purchased from Beijing Huafukang Biotechnology Co., Ltd.; license number: SCXK (Beijing) 2014-0004
(§1) (1) Normal control group (control group): 0.5 wt % sodium carboxymethyl cellulose was administered intragastrically.
(2) IBC model group (model group): 0.5 wt % sodium carboxymethyl cellulose was administered intragastrically.
(3) Positive drug sulfasalazine group (SASP group): Shanghai Sinepharm Factory Co., Ltd. (batch number: 036151102); dosage: 500 mg/kg, prepared with 0.5 wt % sodium carboxymethyl cellulose, stored at 4° C., administered intragastrically once a day.
(4) Test group: the fatty acid compositions of Examples 1 to 9, dosage: 500 mg/kg, prepared with 0.5 wt % sodium carboxymethyl cellulose, stored at 4° C., administered intragastrically once a day.
For the convenience of experimental operation, two experiments were conducted. The fatty acid compositions of Examples 1 to 5 were used for the first experiment; the fatty acid compositions of Examples 6 to 9 were used for the second experiment. Both experiments were operated according to the following methods. C57BL/6J mice were adaptively fed in an SPF animal room (laboratory animal license number: SYXK (Beijing) 2014-0023) for one week, and then randomly grouped. The mice in the model group and the administration groups were constructed as an IBC mouse model with DSS (MP, CA9011-18-1, US) by entrusting to the Institute of Materia Medica, Chinese Academy of Medical Sciences. The mice in the normal control group were not treated. The normal control group (control group) and model group (model group) were administered with 0.5 wt % sodium carboxymethyl cellulose intragastrically, once a day, with an administration volume of 10 mL/kg. The SASP group and the test group were administered intragastrically according to the above experimental scheme, once a day. […] The animals in each group were sacrificed, and each evaluation indicator of colitis was tested (see the section of Experiment results), and the anti-IBD pharmacodynamic activity of each test sample was evaluated comprehensively.
The DAI scoring criteria were as follows:
The histopathology scoring criteria table was as follows: […]

Test [2] relates to IBD mouse model with DSS. Briefly: DSS-induced IBD mouse model (Example 14). As to conditions: 500 mg/kg intragastrically once a day; 6 days of DSS modeling. In kind it is in vivo, C57BL/6J mice. The procedure: as §1
(§2) (2) IBD model group (model group): 0.5 wt % sodium carboxymethyl cellulose was administered intragastrically.
(3) Positive drug sulfasalazine group (SASP group): sulfasalazine enteric-coated tablets; dosage: 500 mg/kg, prepared with 0.5 wt % sodium carboxymethyl cellulose; stored at 4° C. and administered intragastrically once a day.
The mice in the model group and the administration groups were constructed as an IBD mouse model with DSS (MP, CA9011-18-1, US, keeping away from light) by entrusting to the Institute of Materia Medica, Chinese Academy of Medical Sciences. The mice in the normal control group were not treated. The normal control group and model group were administered with 0.5 wt % sodium carboxymethyl cellulose intragastrically, once a day. The SASP group and the test group were administered intragastrically according to the above experimental scheme, once a day. […] The animals in each group were sacrificed, and each evaluation indicator of colitis (see the section of Experiment results) was tested, and the anti-IBD pharmacodynamic activity of each test sample was evaluated comprehensively.

Test [3] has as its system TNBS-induced rat IBD model. Briefly: TNBS-induced rat IBD model (Example 15). In kind it is in vivo, SD rats. The procedure: (1) Normal control group (control group): 0.5 wt % sodium carboxymethyl cellulose (CMC-Na) was administered intragastrically.
as §2
(3) Positive drug sulfasalazine group (SASP group): sulfasalazine enteric-coated tablets, dosage: 600 mg/kg, prepared with 0.5% sodium carboxymethyl cellulose; administered intragastrically once a day.
3. Experimental method: After being fasted but water allowed for about 24 hours, rats in each group were anesthetized by intraperitoneal injection of 3% sodium pentobarbital solution, and a plastic tube with a diameter of 2 mm and a length of about 12 cm was gently inserted into the rat body via the anus for about 8 cm deep. The ethanol solution containing TNBS was slowly injected with the dose of TNBS 75 mg/kg and the administration volume of 3 mL/kg body weight, and then about 0.1 mL of air was injected to discharge the medicine remained in the plastic tube into intestine. After the administration, the plastic tube was slowly pulled out, the anus was pinched with hand, and the tail of the rat was lifted and kept upside down for about 30 s, so that the modeling agent can fully penetrate into the intestinal cavity of the rat. The normal control group was injected with the same amount of normal saline, Based on the body weight thereof, 75 TNBS modeled rats were randomly divided into model group, positive drug group (sulfasalazine 600 mg/kg body weight), test groups 1 to 3, 15 rats/group, and a normal control group was set up, in which 15 rats were included. On the second day after modeling, the corresponding test samples were administered intragastrically. The normal control group and the model group were administered with 0.5 wt % CMC-Na once a day for 5 consecutive days. DAI activity score was performed on days 1 and 3 of administration and 24 hours after the last administration. Intestinal mucosal damage was observed 24 hours after the last administration for CMDI scoring. The colon tissue was taken for histopathological examination.

The subject of test [4] is OXZ-induced mouse IBD model. Nature of the test: OXZ-induced mouse IBD model (Example 16). The test is classed as in vivo, Balb/c mice. The note with it: 500 mg/kg intragastrically once a day, 6 days. Here is the method: 1. Animals: Balb/c mice, male (20-22 g); 10 mice per group.
as §1, §2
(3) Positive drug sulfasalazine group (SASP group): Dosage: 500 mg/kg, prepared with 0.5 wt % sodium carboxymethyl cellulose; stored at 4° C. and administered intragastrically once a day.
Balb/c mice were adaptively fed in an SPF animal room for one week and then grouped randomly. The mice in the model group and the administration groups were constructed as an IBD mouse model with OXZ by entrusting to the Institute of Materia Medica, Chinese Academy of Medical Sciences. Then, the administration was performed for 6 consecutive days; the normal control group was not treated. The normal control group and the model group were intragastrically administered with 0.5 wt % sodium carboxymethylcellulose, once a day. SASP group and test groups 1 to 2 were administrated intragastrically according to the above experimental scheme, once a day. Animals in each group were sacrificed on day 6 of modeling, and various indicators related to colitis were tested (see the section of Experimental results).

The mark [5] stands for this setting: SASP 600 mg/kg, Example 4 at 150, 300 and 600 mg/kg.

Marks after values point to notes of the source that are not given here.

As to `O=C(O)c1cc(/N=N/c2ccc(S(=O)(=O)Nc3ccccn3)cc2)ccc1O` [Positive drug, sulfasalazine], in test [1] (first experiment), the “anti-IBD activity / colon tissue damage (in words)” value is “effectively improve the colon tissue damage” and the “disease comprehensive index DAI score vs. model group (in words)” value is listed as “reduce the disease comprehensive index DAI score of the experimental animal significantly”. For the same molecule, in test [1] (first experiment, 7 days of DSS modeling), the “DAI comprehensive index inhibition rate (%)” value is listed as 23.08^# %. In test [1] (first experiment, 7 days of DSS modeling, lower is closer to normal), this molecule gave a histopathological score of 7.25 ± 2.14. The “anti-IBD activity / colon tissue damage (in words)” value in test [1] (second experiment) is “slightly improve the colon tissue damage”. Besides, the “DAI comprehensive index inhibition rate (%)” value in test [2] is 38.7^# %. Moreover, in test [3] (600 mg/kg, model group 6 cases of 15), the “histopathological examination: cases with histological changes of the colon” value is listed as 5 cases of 15 cases. Further, in test [3] (setting [5]), the “degree of colon histological lesions vs. model group” value is “significantly reduced compared with the model group”; the “symptoms of sparse stools and bloody stools during the administration period” value is recorded as “alleviated until disappeared”. Besides, the DAI score value result in test [3] (d6, 600 mg/kg intragastrically once a day for 5 days, p<0.05) is “lower”. Besides, in test [3] (d6, 600 mg/kg intragastrically once a day, p<0.05), the CMDI score value entry was “lower”. Besides, in test [4], the “DAI composite index inhibition rate (%)” value was 50% and the histopathological score was found to be 4.38 ± 0.42.

Source of the values: patent US20220162238A1, “FATTY ACID COMPOSITION AND APPLICATION THEREOF” (SICHUAN GOWELL PHARMACEUTICAL CO., LTD., priority 2019, published 2022).
